Results reported in US9776979B2, “EBI2 modulators” (Sanford-Burnham Medical Research Institute, priority 2013, dated 2017).

Each compound was assayed against EBI2 (Homo sapiens, UniProt P32249) (assay: Cell-based luminescent assay (EBI2 modulation)). Details: cell-based luminescence; 7a,25-OHC final assay concentration 80 nM; 60 minutes incubation; read-out: IC50.
Summary of the method: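 Cells plated overnight at 37° C, then exposed to compound at 4-5 uM final with 80 nM 7a,25-OHC agonist for 60 min at 37° C. Luminescence read after 60 min detection at 25° C in the dark; values normalized to neutral and stimulator controls and plate-pattern corrected.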

Sequence of EBI2 (P32249 whole entry): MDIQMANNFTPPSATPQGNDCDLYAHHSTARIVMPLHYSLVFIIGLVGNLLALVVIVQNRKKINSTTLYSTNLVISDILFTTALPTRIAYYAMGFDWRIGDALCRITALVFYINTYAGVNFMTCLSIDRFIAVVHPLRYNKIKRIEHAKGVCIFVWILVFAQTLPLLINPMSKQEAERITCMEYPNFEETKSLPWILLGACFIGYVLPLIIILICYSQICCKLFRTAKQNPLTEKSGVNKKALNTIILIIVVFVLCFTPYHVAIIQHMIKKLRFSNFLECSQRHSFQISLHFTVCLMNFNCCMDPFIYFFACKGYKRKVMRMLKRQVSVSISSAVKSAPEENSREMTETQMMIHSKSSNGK

SMILES	IC50
O=C(C#Cc1ccccc1)N1CCN(C(c2ccccc2)c2ccccc2)CC1 [Compound C139, 1-[4-(diphenylmethyl)piperazinyl]-3-phenylprop-2-yn-1-one]	< 100 nM
O=C(c1ccc(C(F)(F)F)cc1)N1CCN(C(=O)c2cc3cc(Br)ccc3[nH]2)CC1 [Compound C140, 5-bromoindol-2-yl 4-{[4-(trifluoromethyl)phenyl]carbonyl}piperazinyl ketone]	< 100 nM
O=C(C#Cc1cccc(Cl)c1Cl)N1CCN(Cc2ccc(F)cc2C(F)(F)F)CC1 [Compound C141, 3-(2,3-dichlorophenyl)-1-(4-{[4-fluoro-2-(trifluoromethyl)phenyl]methyl}piperazinyl)prop-2-yn-1-one]	< 100 nM
CC(C)(C)c1ccc(CN2CCN(C(=O)/C=C/c3ccc(Br)cc3)CC2)cc1 [Compound C144, (2E)-1-(4-{[4-(tert-butyl)phenyl]methyl}piperazinyl)-3-(4-bromophenyl)prop-2-en-1-one]	< 100 nM
CCC(=O)N1CCN(C(=O)/C=C/c2ccc(Br)cc2)CC1 [Compound C145, (2E)-3-(4-bromophenyl)-1-(4-propanoylpiperazinyl)prop-2-en-1-one]	< 100 nM
COc1ccc(/C=C/C(=O)N2CCN(S(=O)(=O)c3ccc(Br)cc3)CC2)cc1 [Compound C146, (2E)-1-{4-[(4-bromophenyl)sulfonyl]piperazinyl}-3-(4-methoxyphenyl)prop-2-en-1-one]	< 100 nM
O=C(C#Cc1ccc(Br)cc1)N1CCN(C(=O)c2ccc(-c3nnn[nH]3)cc2)CC1 [Compound C149, 3-(4-bromophenyl)-1-{4-[(4-(5H-1,2,3,4-tetraazol-5-yl)phenyl)carbonyl]piperazinyl}prop-2-yn-1-one]	< 100 nM
O=C(/C=C/c1ccc(Br)cc1)N1CCN(C(=O)c2ccc(-c3nnn[nH]3)cc2)CC1 [Compound C152, (2E)-3-(4-bromophenyl)-1-{4-[(4-(1H-1,2,3,4-tetraazol-5-yl)phenyl)carbonyl]piperazinyl}prop-2-en-1-one]	< 100 nM
O=C(C#Cc1cccc(Cl)c1)N1CCN(C(=O)c2ccc(F)cc2C(F)(F)F)CC1 [Compound C157, 3-(3-chlorophenyl)-1-(4-{[4-fluoro-2-(trifluoromethyl)phenyl]carbonyl}piperazinyl)prop-2-yn-1-one]	< 100 nM
O=C(C#Cc1ccc(Br)cc1)N1CCN(C(=O)c2ccc(B(O)O)cc2)CC1 [Compound C160, 4-(4-(3-(4-bromophenyl)propioloyl)piperazine-1-carbonyl)phenylboronic acid]	< 100 nM
O=C(c1ccc(Br)cc1)N1CCN(Cc2ccc(F)cc2C(F)(F)F)CC1 [Compound C164, 4-bromophenyl 4-{[4-fluoro-2-(trifluoromethyl)phenyl]methyl}piperazinyl ketone]	500 to 5000 nM
O=C(c1ccc(Br)cc1)N1CCN(Cc2ccc(F)cc2)CC1 [Compound C165, 4-bromophenyl 4-[(4-fluorophenyl)methyl]piperazinyl ketone]	500 to 5000 nM
O=C(C#Cc1ccccc1C(F)(F)F)N1CCN(C(=O)c2ccc(C(F)(F)F)cc2)CC1 [Compound C169, 3-[2-(trifluoromethyl)phenyl]-1-(4-{[4-(trifluoromethyl)phenyl]carbonyl}piperazinyl)prop-2-yn-1-one]	500 to 5000 nM
Cn1c(C(=O)N2CCN(C(c3ccccc3)c3ccccc3)CC2)cc2ccsc21 [Compound C173, 4-(diphenylmethyl)piperazinyl 6-methylthiopheno[3,2-d]pyrrol-5-yl ketone]	500 to 5000 nM
O=C(O)c1ccc(CN2CCN(C(=O)c3cc4cc(Cl)ccc4[nH]3)CC2)cc1 [Compound C177, 4-({4-[(5-chloroindol-2-yl)carbonyl]piperazinyl}methyl)benzoic acid]	500 to 5000 nM
O=C(c1cc2cccc([N+](=O)[O-])c2[nH]1)N1CCN(C(c2ccccc2)c2ccccc2)CC1 [Compound C178, 4-(diphenylmethyl)piperazinyl 7-nitroindol-2-yl ketone]	500 to 5000 nM
O=C(C#Cc1ccc(F)cc1)N1CCN(Cc2ccc(F)cc2C(F)(F)F)CC1 [Compound C179, 3-(4-fluorophenyl)-1-(4-{[4-fluoro-2-(trifluoromethyl)phenyl]methyl}piperazinyl)prop-2-yn-1-one]	500 to 5000 nM
O=C(c1cc2cc(Cl)ccc2[nH]1)N1CCN(c2ccccn2)CC1 [Compound C182, 5-chloroindol-2-yl 4-(2-pyridyl)piperazinyl ketone]	500 to 5000 nM
Cc1c(C(=O)N2CCN(C(c3ccccc3)c3ccccc3)CC2)sc2ccccc12 [Compound C185, 4-(diphenylmethyl)piperazinyl 3-methylbenzo[b]thiophen-2-yl ketone]	500 to 5000 nM

Results, then the compound that gave them:

IC50	SMILES
< 100 nM	O=C(/C=C/c1ccc(F)cc1)N1CCN(S(=O)(=O)c2cccc(Cl)c2)CC1 [Compound C138, (2E)-1-{4-[(3-chlorophenyl)sulfonyl]piperazinyl}-3-(4-fluorophenyl)prop-2-en-1-one]
< 100 nM	O=C(c1cc2cc(C(F)(F)F)ccc2s1)N1CCN(C(c2ccccc2)c2ccccc2)CC1 [Compound C142, 4-(diphenylmethyl)piperazinyl 5-(trifluoromethyl)benzo[b]thiophen-2-yl ketone]
< 100 nM	O=C(/C=C/c1cc(F)c(F)c(F)c1)N1CCN(C(c2ccccc2)c2ccccc2)CC1 [Compound C147]
< 100 nM	COc1ccc(C(=O)N2CCN(C(=O)c3cc4ccc(Cl)cc4[nH]3)CC2)cc1 [Compound C151, 6-chloroindol-2-yl 4-[(4-methoxyphenyl)carbonyl]piperazinyl ketone]
< 100 nM	O=C(/C=C/c1ccc(Br)cc1)N1CCN(C(=O)c2ccc(B(O)O)cc2)CC1 [Compound C153, (E)-(4-(4-(3-(4-bromophenyl)acryloyl)piperazine-1-carbonyl)phenyl)boronic acid]
< 100 nM	O=C(C=C(Br)c1ccc(Br)cc1)N1CCN(C(c2ccccc2)c2ccccc2)CC1 [Compound C155, 1-[4-(diphenylmethyl)piperazinyl]-3-bromo-3-(4-bromophenyl)prop-2-en-1-one]
< 100 nM	O=C(c1cc2cc(F)ccc2s1)N1CCN(C(c2ccccc2)c2ccccc2)CC1 [Compound C156, 4-(diphenylmethyl)piperazinyl 5-fluorobenzo[b]thiophen-2-yl ketone]
< 100 nM	Cc1ccc2[nH]c(C(=S)N3CCN(C(c4ccccc4)c4ccccc4)CC3)cc2c1 [Compound C158, [4-(diphenylmethyl)piperazinyl](5-methylindol-2-yl)methane-1-thione]
< 100 nM	O=C(C#Cc1ccc(F)cc1)N1CCN(C(c2ccccc2)c2ccccc2)CC1 [Compound C159, 1-[4-(diphenylmethyl)piperazinyl]-3-(4-fluorophenyl)prop-2-yn-1-one]
< 100 nM	O=C(/C=C/c1ccccc1)N1CCN(Cc2ccc([N+](=O)[O-])cc2)CC1 [Compound C161, (2E)-1-{4-[(4-nitrophenyl)methyl]piperazinyl}-3-phenylprop-2-en-1-one]
500 to 5000 nM	Cc1ccc2[nH]c(C(=O)NC3CCN(C(c4ccccc4)c4ccccc4)CC3)cc2c1 [Compound C162, N-[1-(diphenylmethyl)(4-piperidyl)](5-methylindol-2-yl)carboxamide]
500 to 5000 nM	O=C(c1cc[nH]c1)N1CCN(C(=O)c2cc3cc(Cl)ccc3[nH]2)CC1 [Compound C163, 5-chloroindol-2-yl 4-(pyrrol-3-ylcarbonyl)piperazinyl ketone]
500 to 5000 nM	O=C(C#Cc1ccc(F)cc1F)N1CCN(C(=O)c2ccc(C(F)(F)F)cc2)CC1 [Compound C166, 3-(2,4-difluorophenyl)-1-(4-{[4-(trifluoromethyl)phenyl]carbonyl}piperazinyl)prop-2-yn-1-one]
500 to 5000 nM	O=C(C=Cc1ccc2c(c1)OCO2)N1CCN(Cc2ccc(C(F)(F)F)cc2)CC1 [Compound C167, 3-(2H-benzo[3,4-d]1,3-dioxolan-5-yl)-1-(4-{[4-(trifluoromethyl)phenyl]methyl}piperazinyl)prop-2-en-1-one]
500 to 5000 nM	O=C(c1nc2ccccc2s1)N1CCN(C(c2ccccc2)c2ccccc2)CC1 [Compound C168, benzothiazol-2-yl 4-(diphenylmethyl)piperazinyl ketone]
500 to 5000 nM	O=C(C#Cc1ccc(Cl)c(Cl)c1)N1CCN(Cc2ccc(C(F)(F)F)cc2)CC1 [Compound C171, 3-(3,4-dichlorophenyl)-1-(4-{[4-(trifluoromethyl)phenyl]methyl}piperazinyl)prop-2-yn-1-one]
500 to 5000 nM	O=C(/C=C/c1cc(Br)ccc1F)N1CCN(S(=O)(=O)c2ccc(Br)cc2)CC1 [Compound C174, (2E)-3-(5-bromo-2-fluorophenyl)-1-{4-[(4-bromophenyl)sulfonyl]piperazinyl}prop-2-en-1-one]
500 to 5000 nM	O=C(c1cnc2ccccc2c1)N1CCN(Cc2ccc(Cl)cc2)CC1 [Compound C175, 4-[(4-chlorophenyl)methyl]piperazinyl 3-quinolyl ketone]
500 to 5000 nM	O=C(c1cc2ccc(Br)cc2[nH]1)N1CCN(Cc2ccc(Br)cc2)CC1 [Compound C180, 6-bromoindol-2-yl 4-[(4-bromophenyl)methyl]piperazinyl ketone]
500 to 5000 nM	O=C(Nc1ccc(F)cc1)c1ccc(CN2CCN(C(=O)c3cc4cc(Cl)ccc4[nH]3)CC2)cc1 [Compound C181, [4-({4-[(5-chloroindol-2-yl)carbonyl]piperazinyl}methyl)phenyl]-N-(4-fluorophenyl)carboxamide]
500 to 5000 nM	O=C(c1ccc2nc(C(F)(F)F)[nH]c2c1)N1CCN(C(=O)c2cc3cc(Cl)ccc3[nH]2)CC1 [Compound C183, 5-chloroindol-2-yl 4-{[2-(trifluoromethyl)benzimidazol-5-yl]carbonyl}piperazinyl ketone]
500 to 5000 nM	O=C(NC1CCN(C(=O)c2cc3cc(Cl)ccc3[nH]2)CC1)c1ccc(Cl)cc1 [Compound C184, N-{1-[(5-chloroindol-2-yl)carbonyl](4-piperidyl)}(4-chlorophenyl)carboxamide]
